This passage reports percent inhibition of ABHD6, percent inhibition and activity results from article PMC9465256, “Discovering monoacylglycerol lipase inhibitors by a combination of fluorogenic substrate assay and activity-based protein profiling” (Frontiers in Pharmacology, 2022).

What all share (format): biochemical
The target of one experiment is T1, human ABHD6 (Homo sapiens, UniProt Q9BV23).
T1 construct: expressed in transfected cells; host or cells: HEK293T (transient transfection; membrane fraction)
T1 sequence (Q9BV23 1-337): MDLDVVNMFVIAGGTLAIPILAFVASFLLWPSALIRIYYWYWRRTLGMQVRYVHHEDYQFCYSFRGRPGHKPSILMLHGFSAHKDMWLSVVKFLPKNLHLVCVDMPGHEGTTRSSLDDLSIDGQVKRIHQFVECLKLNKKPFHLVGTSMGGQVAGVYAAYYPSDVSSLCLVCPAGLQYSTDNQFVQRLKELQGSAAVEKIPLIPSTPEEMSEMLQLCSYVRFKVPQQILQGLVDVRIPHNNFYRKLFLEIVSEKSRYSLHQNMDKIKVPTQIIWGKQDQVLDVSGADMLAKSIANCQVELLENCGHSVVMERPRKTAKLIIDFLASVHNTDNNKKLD
In words: ABHD6 activity assay (AA-HNA fluorogenic substrate). The conditions noted are these: read-out: ABHD6 Inhibition (%); for activity at 100 µM / activity: AA-HNA substrate assay, Supplementary Table 2, 100 µM. As to the method:
(§1) HEK293T cells were cultured at 37°C under 5% CO2 in a DMEM medium with stable glutamine and phenolred, containing 10% fetal bovine serum (FBS, Gibco), penicillin, and streptomycin. The cells were passaged every 2–3 days by resuspension in the medium at ∼90% confluence. The membranes used in this study were prepared from transiently transfected HEK293T cells. Briefly, 1 day prior to transfection, ∼10^7 cells were seeded in 15 cm plates, and then the cells were transfected by the addition of a mixture of polyethyleneimine and plasmid DNA (3:1, 60, and 20 µg) in 2 ml of medium (without serum). Of note, the empty pcDNA3.1 vector was used in the Mock-control. After 24 h, the medium was removed and the cells were refreshed with fresh medium. After 72 h, the cells were harvested by suspending in 20 ml of medium, and the supernatant was removed by centrifugation for 10 min at 1,000 rpm. The cell pellet was flash frozen in liquid nitrogen and stored at −80°C until use. Subsequently, the cell pellets were suspended in lysis buffer (30 mM Tirs, pH 7.5, 1 mM MgCl2, 25 U/ml Benzonase), which was homogenized by sonication (3 × 10 bursts) and incubated for 30 min on ice. The membrane fractions overexpressing MAGL/ABHD6/ABHD12 were separated by ultracentrifuge (100,000 g, 30 min, 4 C). The protein concentration was determined with a Qubit protein assay (Invitrogen). The protein samples were quickly frozen in liquid nitrogen and stored at −80 C until use.
The MAGL activity assay is based on the hydrolysis of 2-arachidonoylglycerol-based fluorogenic substrate by MAGL-overexpressing membrane preparations from transiently transfected HEK293T cells. In brief, the reactions were performed in HEPES buffer (40 mM HEPES, pH 7.5, 0.1 mg/ml BSA) in black, flat bottom 96-well plates. The final protein concentration of membrane fractions from overexpressing human MAGL HEK293T cells was 12.5 μg/ml 5 µl of inhibitors were added from×40 concentrated DMSO stocks in the 96-well plate containing 145 µl assay buffer, followed by the addition of 40 µl of the protein (12.5 μg/ml). After the incubation of the inhibitor-protein complex for 30 min, 10 µl of the fluorogenic substrate (AA-HNA, 200 µM) was added and fluorescence was measured in 1 min intervals for 30 min on a plate reader (BioTek). Final assay concentrations: 12.5 μg/ml MAGL, […], and […] in the total volume of 200 µl. All the measurements were performed in N = 2, n = 2 for inhibitors and N = 2, n = 4 for controls with Z′ value ≥0.6. The slope is determined in 5–15 min for all the experiments.
The ABHD6 activity assay is based on the same principle as the MAGL activity assay described earlier, but with human ABHD6 overexpressing membrane preparations at a final protein concentration of 50 μg/ml and 200 µM AA-HNA. Other conditions are the same as those of the MAGL activity assay.

Another experiment concerns the target T2, human ABHD12 (Homo sapiens, UniProt Q8N2K0).
T2 construct: expressed in transfected cells; host or cells: HEK293T (transient transfection; membrane fraction)
T2 sequence (Q8N2K0 1-398): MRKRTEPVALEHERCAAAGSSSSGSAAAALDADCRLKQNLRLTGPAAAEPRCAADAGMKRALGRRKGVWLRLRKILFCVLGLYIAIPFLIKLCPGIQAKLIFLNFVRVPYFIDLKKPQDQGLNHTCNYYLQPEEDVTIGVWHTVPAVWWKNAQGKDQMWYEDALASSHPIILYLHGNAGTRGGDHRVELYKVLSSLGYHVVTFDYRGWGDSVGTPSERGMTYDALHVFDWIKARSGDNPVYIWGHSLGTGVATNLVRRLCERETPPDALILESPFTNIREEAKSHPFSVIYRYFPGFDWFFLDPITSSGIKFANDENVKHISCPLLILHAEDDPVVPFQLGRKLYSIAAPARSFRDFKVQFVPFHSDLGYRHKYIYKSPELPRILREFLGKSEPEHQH
In words: ABHD12 activity by competitive ABPP with FP-TAMRA. The conditions noted are these: read-out: ABHD12 Inhibition (%); for activity at 100 µM / activity: 100 µM compound, competitive ABPP with probe FP-TAMRA (250 nM). As to the method: as §1
The ABHD12 activity assay is based on competitive activity-based protein profiling (ABPP) with human ABHD12 overexpressing membrane fractions. Briefly, the membrane proteome (1 mg/ml, 20 µl) was incubated at room temperature with 0.5 µl DMSO (vehicle) or inhibitor for 30 min. Subsequently, the samples were treated with the activity-based probe FP-TAMRA (250 nM, final concentration) for 20 min. The reactions were then quenched by 10 µl sample buffer (×4) (final concentrations: 60 mM Tris, pH 6.8, 2% (w/v) SDS, 10% (v/v) glycerol, 5% (v/v) β-mercaptoethanol, 0.01% (v/v) bromophenol blue). The samples were directly loaded and resolved on SDS-PAGE gel (10% acrylamide), which were then scanned using a ChemiDoc MP system (Cy3 settings, BioRad).

Another experiment addresses T3, human MAGL (Homo sapiens, UniProt Q99685).
T3 construct: expressed in transfected cells; host or cells: HEK293T (transient transfection; membrane fraction)
T3 sequence (Q99685 1-303): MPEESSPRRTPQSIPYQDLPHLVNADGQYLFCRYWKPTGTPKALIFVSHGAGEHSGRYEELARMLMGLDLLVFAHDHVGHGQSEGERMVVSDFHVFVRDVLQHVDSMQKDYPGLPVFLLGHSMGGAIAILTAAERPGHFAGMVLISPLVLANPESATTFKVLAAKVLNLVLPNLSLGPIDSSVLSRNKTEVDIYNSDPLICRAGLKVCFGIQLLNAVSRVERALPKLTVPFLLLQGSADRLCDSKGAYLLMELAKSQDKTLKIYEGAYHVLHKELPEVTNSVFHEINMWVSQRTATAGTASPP
Put plainly: MAGL activity assay (AA-HNA fluorogenic substrate). Particulars: read-out: MAGL Inhibition (%); for activity at 100 µM / activity: AA-HNA substrate assay, Supplementary Table 1, 100 µM. On the procedure:
as §1
The MAGL activity assay is based on the hydrolysis of 2-arachidonoylglycerol-based fluorogenic substrate by MAGL-overexpressing membrane preparations from transiently transfected HEK293T cells. In brief, the reactions were performed in HEPES buffer (40 mM HEPES, pH 7.5, 0.1 mg/ml BSA) in black, flat bottom 96-well plates. […] After the incubation of the inhibitor-protein complex for 30 min, 10 µl of the fluorogenic substrate (AA-HNA, 200 µM) was added and fluorescence was measured in 1 min intervals for 30 min on a plate reader (BioTek). […] All the measurements were performed in N = 2, n = 2 for inhibitors and N = 2, n = 4 for controls with Z′ value ≥0.6. The slope is determined in 5–15 min for all the experiments.

As to `CC(C)(C)[C@]1(O)CC2OC(=O)CC23C(=O)OC2OC(=O)[C@H](O)C231` (stereo partly drawn) [compound 18, Bilobalide], the percent inhibition of ABHD6 at 100 µM on human ABHD6 is 99.5%. The percent inhibition at 100 µM on human ABHD12 stood at 83%; at human MAGL, 97.8%.
`N#C[C@H](O[C@@H]1O[C@H](CO[C@@H]2O[C@H](CO)[C@@H](O)[C@H](O)[C@H]2O)[C@@H](O)[C@H](O)[C@H]1O)c1ccccc1` [compound 7, Amygdalin]: the activity at 100 µM at human ABHD6 was 90.2%; on human ABHD12, 69.8%; at human MAGL, 75.9%.
Taken in the same sequence, the figures for `C[C@@H]1O[C@@H](O[C@H]2[C@H](Oc3cc(O)c4c(c3)O[C@H](c3ccc(O)cc3)CC4=O)O[C@H](CO)[C@@H](O)[C@@H]2O)[C@H](O)[C@H](O)[C@H]1O` [compound 55, Naringin] were 104%, 81.4% and 104%.
As to `C=C1C(=O)[C@]23[C@H](O)[C@H]1CC[C@H]2[C@@]12CO[C@]3(O)[C@@H](O)[C@@H]1C(C)(C)CC[C@@H]2O` [compound 60, Oridonin], the results for the activity at 100 µM on human ABHD6, on human ABHD12 and at human MAGL were 102%, 74.6% and 59.6%, respectively.
The corresponding values for `CC1(C)[C@@H](O[C@H]2O[C@H](C(=O)O)[C@@H](O)[C@H](O)[C@H]2O[C@@H]2O[C@H](C(=O)O)[C@@H](O)[C@H](O)[C@H]2O)CC[C@]2(C)[C@H]3C(=O)C=C4[C@@H]5C[C@@](C)(C(=O)O)CC[C@]5(C)CC[C@@]4(C)[C@]3(C)CC[C@@H]12` [compound 33, Glycyrrhizin] are 92.9%, 69.3% and 99.5%.
Take `C=C1C(=O)O[C@H]2[C@H]1CC/C(C)=C/CC[C@@]1(C)O[C@@H]21` [compound 65, (-)-Parthenolide]: the values for the activity on human ABHD6, at human ABHD12 and at human MAGL were 105%, 92.4% and 87.5%, respectively.
Consider `c1coc(CNc2ncnc3[nH]cnc23)c1` [compound 44, Kinetin], for which the activity at 100 µM was found to be 98.5% on human ABHD6, 78.2% on human ABHD12 and 90.5% at human MAGL.
Taken in the same sequence, the figures for `O=C(O[C@@H]1Cc2c(O)cc(O)cc2O[C@@H]1c1cc(O)c(O)c(O)c1)c1cc(O)c(O)c(O)c1` [compound 2, (-)-Epigallocatechin Gallate] were 95%, 59.6% and 38.9%.
In the case of `C[C@H]1[C@H](C)CC[C@]2(C(=O)O)CC[C@]3(C)C(=CC[C@@H]4[C@@]5(C)C[C@@H](O)[C@H](O)[C@@](C)(CO)[C@@H]5CC[C@]43C)[C@H]12` [compound 12, Asiatic acid], the activity at 100 µM at human ABHD6 was determined as 95.6%; on human ABHD12, 72.4%; at human MAGL, 86%.
As for `O=C(O)/C=C/c1ccc(O)c(O)c1` [compound 19, Caffeic Acid], the figures for the activity on human ABHD6, on human ABHD12 and at human MAGL were 108%, 83.7% and 90.1%, respectively.
Take `C=CCc1ccc(O)c(-c2cc(CC=C)ccc2O)c1` [compound 48, Magnolol]: the activity at 100 µM on human ABHD6 is 101%; on human ABHD12, 107%; at human MAGL it was 72.2%.
In the case of `O=c1cc(-c2ccccc2)oc2cc(O)cc(O)c12` [compound 22, Chrysin], the activity at 100 µM on human ABHD6 came to 105%; on human ABHD12 it was 84%; on human MAGL, 93.2%.
As for `C[C@H](CCC(=O)O)[C@H]1CC[C@H]2[C@@H]3C[C@H](O)[C@@H]4C[C@H](O)CC[C@]4(C)[C@H]3CC[C@]12C` [compound 40, Hyodeoxycholic], the activity stood at 95.4% at human ABHD6, 70.8% at human ABHD12 and 97% on human MAGL.
Take `C=C[C@H]1CN2CC[C@H]1C[C@H]2[C@H](O)c1ccnc2ccccc12` [compound 21, Cinchonidine]: the activity at 100 µM on human ABHD6 was 109%; at human ABHD12 it was 77.6%; at human MAGL it was 59.3%.
With Methyl-Hesperidin [compound 50], the activity at human ABHD6 was determined as 94.2%; on human ABHD12, 76.8%; at human MAGL, 62.5%.
On to `CCn1cc(C(=O)O)c(=O)c2ccc(C)nc21` [compound 54, Nalidixic acid], for which the activity at 100 µM turned out to be 100% on human ABHD6, 82.2% at human ABHD12 and 143% at human MAGL.
The corresponding values for `O=c1c(O)c(-c2cc(O)c(O)c(O)c2)oc2cc(O)cc(O)c12` [compound 52, Myricetin] are 100%, 63.9% and 41.2%.
Take `COc1cc(/C=C/C(=O)O)ccc1O` [compound 32, Ferulic Acid]: the figures for the activity on human ABHD6, at human ABHD12 and at human MAGL were 92.4%, 80.8% and 104%, respectively.
As for `O=c1c(-c2ccc(O)cc2)coc2c([C@@H]3O[C@H](CO)[C@@H](O)[C@H](O)[C@H]3O)c(O)ccc12` [compound 69, Puerarin], the activity at 100 µM was determined as 119% on human ABHD6, 104% at human ABHD12 and 94.8% at human MAGL.
